From ChEMBL document CHEMBL1133769, “Novel inhibitors of DNA gyrase: 3D structure based biased needle screening, hit validation by biophysical methods, and 3D guided optimization. A promising alternative to random screening” (J Med Chem, 2000) come the findings set out here.

Data set [1] deals with DNA gyrase (Staphylococcus aureus) (UniProt P0A0K8+P20831).
Description: Maximal noneffective concentration for inhibition of DNA gyrase using supercoiling assay.
A short description of data set [2]: Dissociation constant determined by heteronuclear 1H/15N correlation NMR spectroscopy. The format is physicochemical.
The test system of data set [3] is Nucleic Acid. Kind of data set: Maximal noneffective concentration (MNEC) for inhibition of DNA gyrase. The format is nucleic-acid assay.

Molecules are shown by their SMILES.

Sequence of DNA gyrase (Staphylococcus aureus) (P0A0K8 2-644 limits assumed): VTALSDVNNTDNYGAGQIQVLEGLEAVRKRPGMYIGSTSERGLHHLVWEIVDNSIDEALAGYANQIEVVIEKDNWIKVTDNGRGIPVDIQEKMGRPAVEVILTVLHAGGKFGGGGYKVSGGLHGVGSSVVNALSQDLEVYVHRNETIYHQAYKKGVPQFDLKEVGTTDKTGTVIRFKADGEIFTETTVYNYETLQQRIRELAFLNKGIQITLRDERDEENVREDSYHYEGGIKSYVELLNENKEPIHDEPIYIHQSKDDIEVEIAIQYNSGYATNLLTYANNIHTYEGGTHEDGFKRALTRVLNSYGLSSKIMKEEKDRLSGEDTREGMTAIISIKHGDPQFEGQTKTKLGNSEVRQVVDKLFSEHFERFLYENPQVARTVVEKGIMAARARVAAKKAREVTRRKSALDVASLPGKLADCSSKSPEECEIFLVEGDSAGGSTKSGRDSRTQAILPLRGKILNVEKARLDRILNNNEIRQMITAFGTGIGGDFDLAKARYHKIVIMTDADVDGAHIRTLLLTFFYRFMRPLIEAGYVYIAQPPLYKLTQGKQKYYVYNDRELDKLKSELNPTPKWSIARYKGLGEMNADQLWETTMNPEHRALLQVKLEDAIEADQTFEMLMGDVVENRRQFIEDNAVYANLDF
Sequence of DNA gyrase (Staphylococcus aureus) (P20831 whole entry partner): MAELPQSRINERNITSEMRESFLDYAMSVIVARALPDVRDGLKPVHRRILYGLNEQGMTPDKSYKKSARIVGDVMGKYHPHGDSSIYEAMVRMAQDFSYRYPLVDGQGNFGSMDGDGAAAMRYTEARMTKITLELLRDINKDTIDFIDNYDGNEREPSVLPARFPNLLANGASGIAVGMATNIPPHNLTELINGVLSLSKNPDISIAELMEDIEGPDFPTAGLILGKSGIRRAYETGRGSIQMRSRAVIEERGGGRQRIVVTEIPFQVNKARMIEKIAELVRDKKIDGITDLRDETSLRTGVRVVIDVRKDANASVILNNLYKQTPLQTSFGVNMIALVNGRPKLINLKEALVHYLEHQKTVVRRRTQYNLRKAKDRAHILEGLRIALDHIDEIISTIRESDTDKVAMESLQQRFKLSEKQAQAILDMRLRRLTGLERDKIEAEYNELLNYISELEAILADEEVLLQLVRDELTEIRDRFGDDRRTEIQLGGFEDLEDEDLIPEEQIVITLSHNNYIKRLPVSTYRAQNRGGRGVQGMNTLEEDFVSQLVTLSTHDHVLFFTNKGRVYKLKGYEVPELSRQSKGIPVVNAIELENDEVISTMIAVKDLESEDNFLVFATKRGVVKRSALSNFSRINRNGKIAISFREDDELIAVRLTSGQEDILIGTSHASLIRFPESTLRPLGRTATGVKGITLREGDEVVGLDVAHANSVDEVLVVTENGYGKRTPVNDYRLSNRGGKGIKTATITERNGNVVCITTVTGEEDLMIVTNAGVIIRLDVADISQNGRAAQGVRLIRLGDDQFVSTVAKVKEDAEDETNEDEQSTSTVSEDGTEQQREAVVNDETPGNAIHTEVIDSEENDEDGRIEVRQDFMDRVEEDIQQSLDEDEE

On to `Cc1csc(NS(=O)(=O)c2ccc(F)cc2F)c1C(N)=O`, for which, in data set [1], the MNEC was 10 µg/mL.
Still for that read-out and setting: in the case of `Cc1cc(=O)oc2cc(SCc3n[nH]c4cccc(OCc5ccccc5)c34)ccc12` it was 0.25 µg/mL; in that of `O=[N+]([O-])c1ccc2[nH]nc(-c3ccccc3)c2c1`, 63 µg/mL; in that of `Cc1cc(=O)oc2cc(SCc3n[nH]c4ccccc34)ccc12`, 8 µg/mL.
On the same count and under the same terms, in the case of `c1ccc(-c2[nH]nc3ccccc23)cc1` it was 8 µg/mL; in that of `Nc1ccccn1`, more than 250 µg/mL.
The Kd is the constant that tells how readily two partners part at equilibrium. `Nc1ncncn1` gave a Kd in data set [2] of 60 mM. For the same molecule, in data set [1], the MNEC is more than 250 µg/mL.
For `NC(=O)Oc1cc([N+](=O)[O-])ccc1CSCc1ccc(Cl)c(Cl)c1`, in data set [1], the MNEC worked out at 31 µg/mL.
Turning to `N#Cc1cnc(S)nc1N`, in data set [1], the MNEC is 16 µg/mL.
Regarding `c1ccc2[nH]ncc2c1`, in data set [3], the MNEC was more than 250 µg/mL.
In turn, `Oc1ccc(Cl)cc1CNc1ccc(Cl)cc1` had an MNEC in data set [1] of 5 µg/mL.
On the same count and under the same terms, next, `CSc1nc(N)nc(SCCN2CCOCC2)n1`: 31 µg/mL.
`Nc1ncccn1`: in data set [2], binding was characterised by a dissociation constant (Kd) of 60 mM. The MNEC in data set [1] was more than 250 µg/mL.
In turn, `Cc1[nH]c2ncnc(Cl)c2c1C` yielded an MNEC in data set [1] of 31 µg/mL.
The same measure, in the same setting: next, `Cc1cc(=O)oc2cc(SCc3n[nH]c4cccc(OCc5ccc(C(C)(C)C)cc5)c34)ccc12`: 0.03 µg/mL; `Cc1c(O)cc(O)c2c1C(=O)OC[C@H](NC(=O)[C@@H]1[C@H](O)CCN1C(=O)[C@@H](N)CO)C(=O)N[C@H](C(=O)N[C@@H](C)C(=O)O)CSC2`: 0.05 µg/mL.
On the same count and under the same terms, next, `Nc1ccncn1`: more than 250 µg/mL; `OC(CCCCl)c1cc2ccccc2[nH]1` (stereo not given): 16 µg/mL.
